Experimental data: patent publication US20150105252A1, “SUBSTITUTED PYRAZOLES AS HERBICIDES” (E I DU PONT DE NEMOURS AND COMPANY, priority 2013, published 2015)

Assays:
bluegrass [1] = assay: Test D preemergence; type: in vivo, Poa annua; conditions: scale 0 to 100
Outline: (§1)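 Whole-plant herbicidal activity; pre- and postemergence sprays. Soil: silt loam (pre); peat/vermiculite medium (post, 1–4 leaf). Assessment: 14–21 days, visual, 0 = no effect, 100 = complete control.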

canarygrass = assay: Test D preemergence; type: in vivo, Phalaris minor; conditions: scale 0 to 100
Outline: as §1

bromegrass, downy = assay: Test D preemergence; type: in vivo, Bromus tectorum; conditions: scale 0 to 100
Outline: as §1

deadnettle = assay: Test D preemergence; type: in vivo, Lamium amplexicaule; conditions: scale 0 to 100
Outline: as §1

kochia [2] = assay: Test D preemergence; type: in vivo, Kochia scoparia; conditions: scale 0 to 100
Outline: as §1

oilseed rape = assay: Test D preemergence; type: in vivo, Brassica napus; conditions: scale 0 to 100
Outline: as §1

bluegrass [3] = assay: Test D postemergence; type: in vivo, Poa annua; conditions: scale 0 to 100
Outline: as §1

galium = assay: Test D postemergence; type: in vivo, Galium aparine; conditions: scale 0 to 100
Outline: as §1

speedwell = assay: Test D postemergence; type: in vivo, Veronica persica; conditions: scale 0 to 100
Outline: as §1

buckwheat, wild = assay: Test D postemergence; type: in vivo, Polygonum convolvulus; conditions: scale 0 to 100
Outline: as §1

lambsquarters = assay: Test F preemergence; type: in vivo, Chenopodium album
Outline: (§2)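 Plant response is scored by eye relative to controls on a 0 to 100 scale, where 100 means complete control. Preemergence applications were made to seeded silt loam; postemergence ones to seedlings 2 to 18 cm high. Greenhouse holding time was 14 to 21 days.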

giant foxtail = assay: Test F preemergence; type: in vivo, Setaria faberii
Outline: as §2

southern sandbur = assay: Test F preemergence; type: in vivo, Cenchrus echinatus
Outline: as §2

kochia [4] = assay: Test F preemergence; type: in vivo, Kochia scoparia
Outline: as §2

[5] = Preemergence, 31 g ai/ha, scale 0 to 100
[6] = Preemergence, 62 g ai/ha, scale 0 to 100
[7] = Preemergence, 125 g ai/ha, scale 0 to 100
[8] = preemergence, 8 g ai/ha, scale 0 to 100, 100 is complete control
[9] = preemergence, 16 g ai/ha, scale 0 to 100, 100 is complete control

SMILES: CCCc1cc(C(=O)NCC(F)(F)F)nn1Cc1ccnc(C(F)(F)F)c1 [Compound 105]
- Plant response rating, Bluegrass (bluegrass [1]; 31 g ai/ha): 55
- Plant response rating, Bluegrass (bluegrass [1]; 62 g ai/ha): 80
- Plant response rating, Bluegrass (bluegrass [1]; 125 g ai/ha): 100
- Plant response rating, Bluegrass (bluegrass [1]; 250 g ai/ha): 100
- Plant response rating, Canarygrass (canarygrass; 31 g ai/ha): 15
- Plant response rating, Canarygrass (canarygrass; 62 g ai/ha): 60
- Plant response rating, Canarygrass (canarygrass; 125 g ai/ha): 100
- Plant response rating, Canarygrass (canarygrass; 250 g ai/ha): 100
- Plant response rating, Bromegrass, Downy (bromegrass, downy; 31 g ai/ha): 5
- Plant response rating, Bromegrass, Downy (bromegrass, downy; 62 g ai/ha): 15
- Plant response rating, Bromegrass, Downy (bromegrass, downy; 125 g ai/ha): 55
- Plant response rating, Bromegrass, Downy (bromegrass, downy; 250 g ai/ha): 95
- Plant response rating, Deadnettle (deadnettle; 31 g ai/ha): 5
- Plant response rating, Deadnettle (deadnettle; 125 g ai/ha): 20
- Plant response rating, Deadnettle (deadnettle; 250 g ai/ha): 35
- Plant response rating, Kochia (kochia [2]; 31 g ai/ha): 95
- Plant response rating, Kochia (kochia [2]; 62 g ai/ha): 100
- Plant response rating, Kochia (kochia [2]; 125 g ai/ha): 100
- Plant response rating, Kochia (kochia [2]; 250 g ai/ha): 100
- Plant response rating, Oilseed Rape (oilseed rape; 31 g ai/ha): 0
- Plant response rating, Oilseed Rape (oilseed rape; 62 g ai/ha): 10
- Plant response rating, Oilseed Rape (oilseed rape; 125 g ai/ha): 70
- Plant response rating, Oilseed Rape (oilseed rape; 250 g ai/ha): 95
- Bluegrass plant response rating (bluegrass [3]; Postemergence, 31 g ai/ha): 15
- Bluegrass plant response rating (bluegrass [3]; Postemergence, 125 g ai/ha): 40
- Bluegrass plant response rating (bluegrass [3]; Postemergence, 250 g ai/ha): 70
- Bluegrass plant response rating (bluegrass [3]; postemergence, 62 g ai/ha): 15
- Galium plant response rating (galium; Postemergence, 31 g ai/ha): 70
- Galium plant response rating (galium; Postemergence, 125 g ai/ha): 80
- Galium plant response rating (galium; Postemergence, 250 g ai/ha): 85
- Galium plant response rating (galium; postemergence, 62 g ai/ha): 75
- Speedwell plant response rating (speedwell; Postemergence, 31 g ai/ha): 60
- Speedwell plant response rating (speedwell; Postemergence, 125 g ai/ha): 70
- Speedwell plant response rating (speedwell; Postemergence, 250 g ai/ha): 95
- Speedwell plant response rating (speedwell; postemergence, 62 g ai/ha): 80
- Buckwheat, Wild plant response rating (buckwheat, wild; Postemergence, 31 g ai/ha): 55
- Buckwheat, Wild plant response rating (buckwheat, wild; Postemergence, 125 g ai/ha): 70
- Buckwheat, Wild plant response rating (buckwheat, wild; Postemergence, 250 g ai/ha): 80
- Buckwheat, Wild plant response rating (buckwheat, wild; postemergence, 62 g ai/ha): 65
- Plant response rating, Lambsquarters (lambsquarters; [5]): 100
- Plant response rating, Lambsquarters (lambsquarters; [6]): 100
- Plant response rating, Lambsquarters (lambsquarters; [7]): 100
- Plant response rating, Lambsquarters (lambsquarters; [8]): 35
- Plant response rating, Lambsquarters (lambsquarters; [9]): 35
- Plant response rating, Giant Foxtail (giant foxtail; [5]): 100
- Plant response rating, Giant Foxtail (giant foxtail; [6]): 100
- Plant response rating, Giant Foxtail (giant foxtail; [7]): 100
- Plant response rating, Giant Foxtail (giant foxtail; [8]): 10
- Plant response rating, Giant Foxtail (giant foxtail; [9]): 65
- Plant response rating, Southern Sandbur (southern sandbur; [5]): 10
- Plant response rating, Southern Sandbur (southern sandbur; [6]): 75
- Plant response rating, Southern Sandbur (southern sandbur; [7]): 95
- Plant response rating, Southern Sandbur (southern sandbur; [8]): 0
- Plant response rating, Southern Sandbur (southern sandbur; [9]): 0
- Plant response rating, Kochia (kochia [4]; [5]): 100
- Plant response rating, Kochia (kochia [4]; [6]): 100
- Plant response rating, Kochia (kochia [4]; [7]): 100
- Plant response rating, Kochia (kochia [4]; [8]): 0
- Plant response rating, Kochia (kochia [4]; [9]): 80

SMILES: CCOc1cc(C(=O)NC(C)C)nn1Cc1ccnc(C(F)(F)F)c1 [Compound 188]
- Plant response rating, Bluegrass (bluegrass [1]; 31 g ai/ha): 55
- Plant response rating, Bluegrass (bluegrass [1]; 62 g ai/ha): 70
- Plant response rating, Bluegrass (bluegrass [1]; 125 g ai/ha): 100
- Plant response rating, Bluegrass (bluegrass [1]; 250 g ai/ha): 100
- Plant response rating, Canarygrass (canarygrass; 31 g ai/ha): 55
- Plant response rating, Canarygrass (canarygrass; 62 g ai/ha): 95
- Plant response rating, Canarygrass (canarygrass; 125 g ai/ha): 100
- Plant response rating, Canarygrass (canarygrass; 250 g ai/ha): 100
- Plant response rating, Bromegrass, Downy (bromegrass, downy; 31 g ai/ha): 20
- Plant response rating, Bromegrass, Downy (bromegrass, downy; 62 g ai/ha): 75
- Plant response rating, Bromegrass, Downy (bromegrass, downy; 125 g ai/ha): 85
- Plant response rating, Bromegrass, Downy (bromegrass, downy; 250 g ai/ha): 100
- Plant response rating, Deadnettle (deadnettle; 31 g ai/ha): 100
- Plant response rating, Deadnettle (deadnettle; 62 g ai/ha): 100
- Plant response rating, Deadnettle (deadnettle; 125 g ai/ha): 100
- Plant response rating, Deadnettle (deadnettle; 250 g ai/ha): 100
- Plant response rating, Kochia (kochia [2]; 62 g ai/ha): 100
- Plant response rating, Kochia (kochia [2]; 125 g ai/ha): 100
- Plant response rating, Kochia (kochia [2]; 250 g ai/ha): 100
- Plant response rating, Oilseed Rape (oilseed rape; 62 g ai/ha): 85
- Plant response rating, Oilseed Rape (oilseed rape; 125 g ai/ha): 100
- Plant response rating, Oilseed Rape (oilseed rape; 250 g ai/ha): 100
- Bluegrass plant response rating (bluegrass [3]; Postemergence, 31 g ai/ha): 20
- Bluegrass plant response rating (bluegrass [3]; Postemergence, 125 g ai/ha): 30
- Bluegrass plant response rating (bluegrass [3]; Postemergence, 250 g ai/ha): 35
- Bluegrass plant response rating (bluegrass [3]; postemergence, 62 g ai/ha): 20
- Galium plant response rating (galium; Postemergence, 31 g ai/ha): 75
- Galium plant response rating (galium; Postemergence, 125 g ai/ha): 85
- Galium plant response rating (galium; Postemergence, 250 g ai/ha): 90
- Galium plant response rating (galium; postemergence, 62 g ai/ha): 75
- Speedwell plant response rating (speedwell; Postemergence, 31 g ai/ha): 75
- Speedwell plant response rating (speedwell; Postemergence, 125 g ai/ha): 80
- Speedwell plant response rating (speedwell; Postemergence, 250 g ai/ha): 90
- Speedwell plant response rating (speedwell; postemergence, 62 g ai/ha): 75
- Buckwheat, Wild plant response rating (buckwheat, wild; Postemergence, 31 g ai/ha): 60
- Buckwheat, Wild plant response rating (buckwheat, wild; Postemergence, 125 g ai/ha): 70
- Buckwheat, Wild plant response rating (buckwheat, wild; Postemergence, 250 g ai/ha): 70
- Buckwheat, Wild plant response rating (buckwheat, wild; postemergence, 62 g ai/ha): 60
- Plant response rating, Lambsquarters (lambsquarters; [6]): 100
- Plant response rating, Lambsquarters (lambsquarters; [7]): 100
- Plant response rating, Lambsquarters (lambsquarters; [8]): 50
- Plant response rating, Giant Foxtail (giant foxtail; [6]): 100
- Plant response rating, Giant Foxtail (giant foxtail; [7]): 100
- Plant response rating, Giant Foxtail (giant foxtail; [8]): 5
- Plant response rating, Southern Sandbur (southern sandbur; [6]): 65
- Plant response rating, Southern Sandbur (southern sandbur; [7]): 100
- Plant response rating, Southern Sandbur (southern sandbur; [8]): 0
- Plant response rating, Kochia (kochia [4]; [6]): 98
- Plant response rating, Kochia (kochia [4]; [7]): 100
- Plant response rating, Kochia (kochia [4]; [8]): 0
